Measured values from patent publication US20080058213A1, “Benzoxazole Compounds” (priority 2004, published 2008).

Experiments:
Type in all cases: in vivo
[1] = tested on: common lambsquaters; assay: Foliage treatment test for upland field (Test Example 3): common lambsquaters; settings: foliage treatment at 1.0-2.0 leaf stage of southern crabgrass, examined after 3 weeks
Description: (§1) Evaluation of the herbicidal effect is shown in the following six grades, by comparing the condition of untreated control and growth inhibition (%): • 0: 0%-less than 20% • 1: 20%-less than 40% • 2: 40%-less than 60% • 3: 60%-less than 80% • 4: 80%-less than 100% • 5: 100%.
(§2) Compost mixed soil was filled in 1/3,000 are pots, seeded with southern crabgrass, common lambsquaters, slender amaranth, common purslane, velvetleaf, wheat, corn and soybean. The seeds were covered up with the soil and cultured in a glasshouse kept at 25° C. on the average.
(§3) Wettable powders containing the object compounds (1) as identified in Table 1, which were formulated following Preparation Example 2, were diluted with water to the prescribed dose of the active ingredient, and uniformly sprayed onto the weeds at 1.0-2.0 leaf stage of the southern crabgrass at an application water of 15 liters per are.
(§4) After placing the test pots in a grasshouse kept at 25° C. on the average for 3 weeks, the herbicidal effect was examined.
(§5) Evaluation of the herbicidal effect was conducted in the similar manner to Test Example 1.

[2] = tested on: southern crabgrass; assay: Foliage treatment test for upland field (Test Example 3): southern crabgrass; settings: foliage treatment at 1.0-2.0 leaf stage of southern crabgrass, examined after 3 weeks
Description: as §1, §2, §3, §4, §5

[3] = tested on: Monochoria (Monochoria vaginalis); assay: Weed control test for paddy field (Test Example 1): Monochoria; settings: paddy pots, treated at 1.0 leaf stage of barnyard grass, examined after 3 weeks
Description: (§6) Paddy field soil was filled in 1/10,000 are pots, kneaded with adequate amounts of water and chemical fertilizer, seeded with barnyard grass (Echinochloa crusgalli), Monochoria (Monochoria vaginalis), Japanese bulrush (Scirpus juncoides) and flat sedge (Cyperus serotinus), and further transplanted with 2.0 leaf stage of rice plant. The pots were maintained under the water-filled condition to a depth of 3 cm.
(§7) Wettable powders containing the compounds (1) as identified in Table 1, which were formulated following Production Example 2, were diluted with adequate amount of water and applied to the pots dropwise with pippet at a prescribed dose of the active ingredients per are, at 1.0 leaf stage of the barnyard grass.
(§8) After placing the pots in a glasshouse which was controlled at an average temperature of 25° C. for 3 weeks, herbicidal effect was examined.
as §1

[4] = tested on: flat sedge (Cyperus serotinus); assay: Weed control test for paddy field (Test Example 1): flat sedge; settings: paddy pots, treated at 1.0 leaf stage of barnyard grass, examined after 3 weeks
Description: as §6, §7, §8, §1

[5] = tested on: slender amaranth; assay: Foliage treatment test for upland field (Test Example 3): slender amaranth; settings: foliage treatment at 1.0-2.0 leaf stage of southern crabgrass, examined after 3 weeks
Description: as §1, §2, §3, §4, §5

[6] = tested on: velvetleaf; assay: Foliage treatment test for upland field (Test Example 3): velvetleaf; settings: foliage treatment at 1.0-2.0 leaf stage of southern crabgrass, examined after 3 weeks
Description: as §1, §2, §3, §4, §5

[7] = tested on: rice plant; assay: Weed control test for paddy field (Test Example 1): phytotoxicity to rice plant; settings: paddy pots, treated at 1.0 leaf stage of barnyard grass, examined after 3 weeks
Description: as §6, §7, §8
(§9) Evaluation of phytotoxicity is shown in the following six grades, as compared with the condition of untreated control: • 0: normal growth • 1: little damaged • 2: low damaged • 3: medium damaged • 4: serious damaged • 5: complete killed.

[8] = tested on: Japanese bulrush (Scirpus juncoides); assay: Weed control test for paddy field (Test Example 1): Japanese bulrush; settings: paddy pots, treated at 1.0 leaf stage of barnyard grass, examined after 3 weeks
Description: as §6, §7, §8, §1

[9] = tested on: soybean; assay: Foliage treatment test for upland field (Test Example 3): phytotoxicity to soybean; settings: foliage treatment at 1.0-2.0 leaf stage of southern crabgrass, examined after 3 weeks
Procedure: as §9, §2, §4

[10] = tested on: common purslane; assay: Foliage treatment test for upland field (Test Example 3): common purslane; settings: foliage treatment at 1.0-2.0 leaf stage of southern crabgrass, examined after 3 weeks
Description: as §1, §2, §3, §4, §5

[11] = tested on: corn; assay: Foliage treatment test for upland field (Test Example 3): phytotoxicity to corn; settings: foliage treatment at 1.0-2.0 leaf stage of southern crabgrass, examined after 3 weeks
Procedure: as §9, §2, §4

[12] = tested on: wheat; assay: Foliage treatment test for upland field (Test Example 3): phytotoxicity to wheat; settings: foliage treatment at 1.0-2.0 leaf stage of southern crabgrass, examined after 3 weeks
Procedure: as §9, §2, §4

[13] = tested on: barnyard grass (Echinochloa crusgalli); assay: Weed control test for paddy field (Test Example 1): barnyard grass; settings: paddy pots, treated at 1.0 leaf stage of barnyard grass, examined after 3 weeks
Description: as §6, §7, §8, §1

[14] = tested on: slender amaranth (Amaranthus viridis); assay: Soil treatment test for upland field (Test Example 2): slender amaranth; settings: soil treatment before germination, examined after 3 weeks
Description: as §1
(§10) Upland field soil was filled in 1/3,000 are pots, seeded with southern crabgrass (Digitaria ciliaris), common lambsquaters (Chenopodium album), slender amaranth (Amaranthus viridis), common purslane (Portulaca oleracea), velvetleaf (Abutilon theophrasti), wheat, corn and soybean. The seeds were covered up with the soil.
(§11) Wettable powders containing the object compounds (1) as identified in Table 1, which were formulated following Preparation Example 2, were diluted with adequate amount of water to secure the prescribed dose of the active ingredient, and uniformly sprayed onto the surface soil layer after the seeding and before germination of the weeds, at an application water of 15 liters per are.
(§12) After placing the test pots in a glasshouse which was kept at an average temperature of 25° C. for 3 weeks, the herbicidal effect was examined.
(§13) Evaluations of the herbicidal effect and phytotoxicity were made in the manner similar to those in the above Test Example 1.

[15] = tested on: corn; assay: Soil treatment test for upland field (Test Example 2): phytotoxicity to corn; settings: soil treatment before germination, examined after 3 weeks
Description: as §9, §10, §12

[16] = tested on: common lambsquaters (Chenopodium album); assay: Soil treatment test for upland field (Test Example 2): common lambsquaters; settings: soil treatment before germination, examined after 3 weeks
Description: as §1, §10, §11, §12, §13

[17] = tested on: wheat; assay: Soil treatment test for upland field (Test Example 2): phytotoxicity to wheat; settings: soil treatment before germination, examined after 3 weeks
Description: as §9, §10, §12

[18] = tested on: southern crabgrass (Digitaria ciliaris); assay: Soil treatment test for upland field (Test Example 2): southern crabgrass; settings: soil treatment before germination, examined after 3 weeks
Description: as §1, §10, §11, §12, §13

[19] = tested on: velvetleaf (Abutilon theophrasti); assay: Soil treatment test for upland field (Test Example 2): velvetleaf; settings: soil treatment before germination, examined after 3 weeks
Description: as §1, §10, §11, §12, §13

[20] = tested on: common purslane (Portulaca oleracea); assay: Soil treatment test for upland field (Test Example 2): common purslane; settings: soil treatment before germination, examined after 3 weeks
Description: as §1, §10, §11, §12, §13

[21] = tested on: soybean; assay: Soil treatment test for upland field (Test Example 2): phytotoxicity to soybean; settings: soil treatment before germination, examined after 3 weeks
Description: as §9, §10, §12

## COCC(=Cc1cccc(C(F)(F)F)c1)c1nc2cc(C(C)(C)C)ccc2o1 [Compound 151]
[1]; dose 2.5 g ai/a
  Herbicidal Effect Common lambsquatters: 5 (100%)
[1]; dose 5 g ai/a
  Herbicidal Effect Common lambsquatters: 5 (100%)
[2]; dose 2.5 g ai/a
  Herbicidal Effect southern crabgrass: 4 (80%-less than 100%)
[2]; dose 5 g ai/a
  Herbicidal Effect southern crabgrass: 5 (100%)
[3]; dose 2.5 g ai/a
  Herbicidal Effect Monochoria vaginalis: 5 (100%)
[3]; dose 5 g ai/a
  Herbicidal Effect Monochoria vaginalis: 5 (100%)
[4]; dose 2.5 g ai/a
  Herbicidal Effect Flat sedge: 3 (60%-less than 80%)
[4]; dose 5 g ai/a
  Herbicidal Effect Flat sedge: 4 (80%-less than 100%)
[5]; dose 2.5 g ai/a
  Herbicidal Effect slender amaranth: 5 (100%)
[5]; dose 5 g ai/a
  Herbicidal Effect slender amaranth: 5 (100%)
[6]; dose 2.5 g ai/a
  Herbicidal Effect velvetleaf: 3 (60%-less than 80%)
[6]; dose 5 g ai/a
  Herbicidal Effect velvetleaf: 4 (80%-less than 100%)
[7]; dose 2.5 g ai/a
  Phytotoxicity Rice plant: 0
[7]; dose 5 g ai/a
  Phytotoxicity Rice plant: 0
[8]; dose 2.5 g ai/a
  Herbicidal Effect Japanese bulrush: 3 (60%-less than 80%)
[8]; dose 5 g ai/a
  Herbicidal Effect Japanese bulrush: 5 (100%)
[9]; dose 2.5 g ai/a
  Phytotoxicity soybean: 0
[9]; dose 5 g ai/a
  Phytotoxicity soybean: 0
[10]; dose 2.5 g ai/a
  Herbicidal Effect common purslane: 5 (100%)
[10]; dose 5 g ai/a
  Herbicidal Effect common purslane: 5 (100%)
[11]; dose 2.5 g ai/a
  Phytotoxicity corn: 0
[11]; dose 5 g ai/a
  Phytotoxicity corn: 0
[12]; dose 2.5 g ai/a
  Phytotoxicity wheat: 0
[12]; dose 5 g ai/a
  Phytotoxicity wheat: 0
[13]; dose 2.5 g ai/a
  Herbicidal Effect Barnyard grass: 4 (80%-less than 100%)
[13]; dose 5 g ai/a
  Herbicidal Effect Barnyard grass: 5 (100%)

## CCOCC(=Cc1cccc(C(F)(F)F)c1)c1nc2cc(F)cc(F)c2o1 [Compound 112]
[3]; dose 2.5 g ai/a
  Herbicidal Effect Monochoria vaginalis: 5 (100%)
[3]; dose 5 g ai/a
  Herbicidal Effect Monochoria vaginalis: 5 (100%)
[4]; dose 2.5 g ai/a
  Herbicidal Effect Flat sedge: 3 (60%-less than 80%)
[4]; dose 5 g ai/a
  Herbicidal Effect Flat sedge: 4 (80%-less than 100%)
[7]; dose 2.5 g ai/a
  Phytotoxicity Rice plant: 0
[7]; dose 5 g ai/a
  Phytotoxicity Rice plant: 1
[8]; dose 2.5 g ai/a
  Herbicidal Effect Japanese bulrush: 4 (80%-less than 100%)
[8]; dose 5 g ai/a
  Herbicidal Effect Japanese bulrush: 5 (100%)
[13]; dose 2.5 g ai/a
  Herbicidal Effect Barnyard grass: 4 (80%-less than 100%)
[13]; dose 5 g ai/a
  Herbicidal Effect Barnyard grass: 5 (100%)

## COCC(=Cc1cccc(C(F)(F)F)c1)c1nc2cc(OC(F)(F)F)ccc2o1 [Compound 46]
[1]; dose 2.5 g ai/a
  Herbicidal Effect Common lambsquatters: 5 (100%)
[1]; dose 5 g ai/a
  Herbicidal Effect Common lambsquatters: 5 (100%)
[14]; dose 2.5 g ai/a
  Herbicidal Effect slender amaranth: 5 (100%)
[14]; dose 5 g ai/a
  Herbicidal Effect slender amaranth: 5 (100%)
[2]; dose 2.5 g ai/a
  Herbicidal Effect southern crabgrass: 4 (80%-less than 100%)
[2]; dose 5 g ai/a
  Herbicidal Effect southern crabgrass: 5 (100%)
[15]; dose 2.5 g ai/a
  Phytotoxicity corn: 0
[15]; dose 5 g ai/a
  Phytotoxicity corn: 1
[5]; dose 2.5 g ai/a
  Herbicidal Effect slender amaranth: 5 (100%)
[5]; dose 5 g ai/a
  Herbicidal Effect slender amaranth: 5 (100%)
[6]; dose 2.5 g ai/a
  Herbicidal Effect velvetleaf: 4 (80%-less than 100%)
[6]; dose 5 g ai/a
  Herbicidal Effect velvetleaf: 5 (100%)
[16]; dose 2.5 g ai/a
  Herbicidal Effect common lambsquaters: 5 (100%)
[16]; dose 5 g ai/a
  Herbicidal Effect common lambsquaters: 5 (100%)
[17]; dose 2.5 g ai/a
  Phytotoxicity wheat: 0
[17]; dose 5 g ai/a
  Phytotoxicity wheat: 0
[9]; dose 2.5 g ai/a
  Phytotoxicity soybean: 1
[9]; dose 5 g ai/a
  Phytotoxicity soybean: 1
[18]; dose 2.5 g ai/a
  Herbicidal Effect southern crabgrass: 4 (80%-less than 100%)
[18]; dose 5 g ai/a
  Herbicidal Effect southern crabgrass: 5 (100%)
[19]; dose 2.5 g ai/a
  Herbicidal Effect velvetleaf: 4 (80%-less than 100%)
[19]; dose 5 g ai/a
  Herbicidal Effect velvetleaf: 5 (100%)
[20]; dose 2.5 g ai/a
  Herbicidal Effect common purslane: 5 (100%)
[20]; dose 5 g ai/a
  Herbicidal Effect common purslane: 5 (100%)
[10]; dose 2.5 g ai/a
  Herbicidal Effect common purslane: 5 (100%)
[10]; dose 5 g ai/a
  Herbicidal Effect common purslane: 5 (100%)
[11]; dose 2.5 g ai/a
  Phytotoxicity corn: 0
[11]; dose 5 g ai/a
  Phytotoxicity corn: 1
[21]; dose 2.5 g ai/a
  Phytotoxicity soybean: 0
[21]; dose 5 g ai/a
  Phytotoxicity soybean: 1
[12]; dose 2.5 g ai/a
  Phytotoxicity wheat: 0
[12]; dose 5 g ai/a
  Phytotoxicity wheat: 1
